Source: US5952204A, “β-fructofuranosidase, its preparation and uses” (priority 1995, dated 1999)

Tests used:
β-fructofuranosidase [1] = experiment: Substrate specificity (TLC); type: biochemical, Bacillus sp. V230 (FERM BP-5054); conditions: 2 w/v % substrate, 2 units/g substrate, 40° C., pH 5.5, 24 hours
Method: A solution with a final concentration of 2 w/v % raffinose, erlose, stachyose, lactose, xylofructoside, maltose, cellobiose, lactose, inulin or laevan as a substrate was mixed with 2 units/g substrate of a β-fructofuranosidase obtained by the method in Experiment 2, and allowed to react enzymatically at 40° C. and pH 5.5 for 24 hours. The reaction mixture was subjected to thin layer chromatography (hereinafter abbreviated as "TLC") using "KIESEL GEL 60", an aluminum plate, 20×20 cm, commercialized by Merck & Co., Inc., NJ, USA, to confirm whether the enzyme acts on these saccharides. The solvent system used in the TLC consisted of 1-butanol, pyridine, and water (=7:3:1 by volume), and samples were developed once at ambient temperature. The saccharides comprising fructose units as constituent saccharides were colored by spraying a 0.5-N phosphoric acid solution containing 0.2 w/v % naphthoresorcinol and heating at 110° C. for about 5 min, while other saccharides were colored by spraying a methanol solution containing 20 w/v % sulfuric acid and heating at 110° C. for about 10 min.

β-fructofuranosidase [2] = experiment: Acceptor specificity (TLC, sucrose as donor); type: biochemical, Bacillus sp. V230 (FERM BP-5054); conditions: summary of Table 1
Method: A saccharide solution with a final concentration of 10%, which consists of one of the monosaccharides, oligosaccharides, and alcohols in Table 1, and an equal amount of sucrose as a donor, d.s.b., was mixed with 2 units/g sucrose of a purified β-fructofuranosidase obtained by the method in Experiment 2, and allowed to react enzymatically at 40° C. and pH 5.5 for 24 hours. The mixtures before the enzymatic reaction and the reaction mixtures after the enzymatic reaction were subjected to TLC similarly as in Experiment 4, and the saccharides were colored by spraying 0.5-N phosphoric acid containing 0.2 w/v % naphthoresorcinol and heating at 110° C. for about 5 min to check the formation of transferred saccharides.

β-fructofuranosidase [3] = experiment: Inhibition of the enzyme activity by metal ions; type: biochemical, Bacillus sp. V230 (FERM BP-5054); conditions: one mM metal ion
Method: The activity of β-fructofuranosidase according to the present invention is assayed as follows: Add 0.2 ml of an enzyme solution to 5 ml of an aqueous solution (pH 6.0) consisting of 1.0 w/v % sucrose, 20 mM acetate buffer, and 5 mM calcium chloride. Incubate the mixture at 40° C. for 10 min, add the Somogyi copper solution to suspend the reaction, and assay the reducing power by the Somogyi-Nelson's method. As a control, provide an enzyme solution pre-heated to inactivate the enzyme at 100° C. for 10 min, and assay the reducing power similarly as above. One unit activity of the enzyme is defined as the amount of enzyme that increases the reducing power of 2 μmol glucose per minute when assayed on the above assay.
In accordance with the method used in the above assay for the enzyme activity, the influence of pH and temperature on the present β-fructofuranosidase activity was studied in the presence of or in the absence of 5 mM calcium chloride. […] The optimum pH of the enzyme was about 5.5-6.0 when incubated at 40° C. for 10 min both in the presence of and in the absence of calcium ion, while the optimum temperature of the enzyme was about 50° C. in the presence of calcium ion and about 45° C. in the absence of calcium ion when incubated at pH 6.0 for 10 min. The pH stability of the present enzyme was determined by incubating in 50 mM buffers with different pHs at 4° C. for 24 hours, and assaying the residual enzyme activity after adjusting the buffers to pH 6. The thermal stability of the enzyme was determined by incubating in 20 mM acetate buffers (pH 6.0) at different temperatures for an hour, and assaying the residual enzyme activity in each buffer after cooling the buffers. The results of pH and thermal stabilities of the present enzyme were respectively in FIGS. 3 and 4. The pH stability of the enzyme was about 5.0-8.0, and the thermal stability was about 45° C. […] One mM Cu^++, Pb^++, Fe^++, Fe^+++ or Hg^++ inhibited the enzyme activity.

dd-strain mice = experiment: Acute toxicity test, oral; type: in vivo; conditions: 7-week-old dd-strain mice
Method: Using 7-week-old dd-strain mice, a powder rich in lactosucrose, obtained by the method in Example A-4 described later, was administered orally to the mice for acute toxicity test. No mouse died up to a dose of 15 g/kg mouse, and a higher dose test was impossible. […] Similarly as above, a powder rich in erlose obtained by the method in Example A-6 described later, a syrup rich in xylosylfructoside obtained by the method in Example A-8 described later, a syrup rich in fructosyltrehalose obtained by the method in Example A-11, or a syrup rich in isomaltosylfructoside obtained by the method in Example A-12 described later was orally administered to 7-week-old dd-strain mice for acute toxicity test. No mouse died up to a dose of 15 g/kg mouse, and a higher does test was impossible.

For `OC[C@H]1O[C@@H](O[C@H]2[C@H](O)[C@@H](O)C(O)O[C@@H]2CO)[C@H](O)[C@@H](O)[C@@H]1O` (some centres unmarked) [Cellobiose], the “Action of the enzyme on the substrate (release of fructose)” value (“Action of the enzyme on the substrate” below) (β-fructofuranosidase [1]) was “does not act on” and the “Transfer of fructosyl residue to the acceptor (in words)” value (“Transfer of fructosyl residue” for short) (β-fructofuranosidase [2]) was “effectively transfers”.

In the case of `[Cu+2]` [Cu^++], the “Inhibition of the enzyme activity” value (β-fructofuranosidase [3]) is reported as “inhibited”.

For `O=C[C@H](O)[C@@H](O)[C@@H](O)[C@H](O)CO` [D-Galactose], the “Transfer of fructosyl residue” value (β-fructofuranosidase [2]) was “effectively transfers”.

`OC[C@@H](O)[C@@H](O)[C@H](O)[C@@H](O)CO` [D-Sorbitol] was tested, and the “Transfer of fructosyl residue” value (β-fructofuranosidase [2]) was “effectively transfers”.

`OC[C@@H](O)[C@H](O)[C@@H](O)CO` [D-Xylitol] was tested, and the “Transfer of fructosyl residue” value (β-fructofuranosidase [2]) was “effectively transfers”.

In the case of `O=C[C@H](O)[C@@H](O)[C@H](O)CO` [D-Xylose], the “Transfer of fructosyl residue” value (β-fructofuranosidase [2]) is reported as “effectively transfers”.

In the case of `OCCO` [Ethylene glycol], the “Transfer of fructosyl residue” value (β-fructofuranosidase [2]) is reported as “effectively transfers”.

With `[Fe+3]` [Fe^+++] the “Inhibition of the enzyme activity” value (β-fructofuranosidase [3]) was “inhibited”.

`[Fe+2]` [Fe^++] was tested, and the “Inhibition of the enzyme activity” value (β-fructofuranosidase [3]) was “inhibited”.

In the case of `OCC(O)CO` [Glycerol], the “Transfer of fructosyl residue” value (β-fructofuranosidase [2]) is reported as “effectively transfers”.

`[Hg+2]` [Hg^++] was tested, and the “Inhibition of the enzyme activity” value (β-fructofuranosidase [3]) was “inhibited”.

In the case of `OC[C@H]1O[C@H](OC[C@H]2OC(O)[C@H](O)[C@@H](O)[C@@H]2O)[C@H](O)[C@@H](O)[C@@H]1O` (some centres unmarked) [Isomaltose], the “Transfer of fructosyl residue” value (β-fructofuranosidase [2]) is reported as “effectively transfers”.

For `OC[C@H]1O[C@@H](O[C@H]2[C@H](O)[C@@H](O)C(O)O[C@@H]2CO)[C@H](O)[C@@H](O)[C@H]1O` (some centres unmarked) [Lactose], the “Action of the enzyme on the substrate” value (β-fructofuranosidase [1]) was “does not act on” and the “Transfer of fructosyl residue” value (β-fructofuranosidase [2]) was “effectively transfers”.

`OC[C@@H](O)[C@@H](O[C@H]1O[C@H](CO)[C@@H](O)[C@H](O)[C@H]1O)[C@H](O)[C@@H](O)CO` [Maltitol] was tested, and the “Transfer of fructosyl residue” value (β-fructofuranosidase [2]) was “effectively transfers”.

`OC[C@H]1O[C@H](O[C@H]2[C@H](O)[C@@H](O)[C@H](O)O[C@@H]2CO)[C@H](O)[C@@H](O)[C@@H]1O` [Maltose] was tested, and the “Action of the enzyme on the substrate” value (β-fructofuranosidase [1]) was “does not act on” and the “Transfer of fructosyl residue” value (β-fructofuranosidase [2]) was “effectively transfers”.

For `OC[C@H]1O[C@H](O[C@H]2[C@H](O)[C@@H](O)[C@@H](O[C@H]3[C@H](O)[C@@H](O)C(O)O[C@@H]3CO)O[C@@H]2CO)[C@H](O)[C@@H](O)[C@@H]1O` (some centres unmarked) [Maltotriose], the “Transfer of fructosyl residue” value (β-fructofuranosidase [2]) was “effectively transfers”.

`OC[C@H]1O[C@H](OC[C@H]2OC(O)[C@H](O)[C@@H](O)[C@@H]2O)[C@H](O)[C@@H](O)[C@H]1O` (some centres unmarked) [Melibiose] was tested, and the “Transfer of fructosyl residue” value (β-fructofuranosidase [2]) was “effectively transfers”.

With `OC[C@H]1O[C@H](OC[C@H]2O[C@H](O[C@H]3[C@H](O)[C@@H](O)C(O)O[C@@H]3CO)[C@H](O)[C@@H](O)[C@@H]2O)[C@H](O)[C@@H](O)[C@@H]1O` (some centres unmarked) [Panose] the “Transfer of fructosyl residue” value (β-fructofuranosidase [2]) was “effectively transfers”.

With `[Pb+2]` [Pb^++] the “Inhibition of the enzyme activity” value (β-fructofuranosidase [3]) was “inhibited”.

With `OC[C@H]1O[C@H](OC[C@H]2O[C@H](O[C@]3(CO)O[C@H](CO)[C@@H](O)[C@@H]3O)[C@H](O)[C@@H](O)[C@@H]2O)[C@H](O)[C@@H](O)[C@H]1O` [Raffinose] the “Action of the enzyme on the substrate” value (β-fructofuranosidase [1]) was “acts on”.

For `OC[C@H]1O[C@H](O[C@H]2O[C@H](CO)[C@@H](O)[C@H](O)[C@H]2O)[C@H](O)[C@@H](O)[C@@H]1O` [Trehalose], the “Transfer of fructosyl residue” value (β-fructofuranosidase [2]) was “effectively transfers”.

With `OC[C@H]1O[C@@](CO)(O[C@H]2O[C@H](CO)[C@@H](O[C@H]3O[C@H](CO)[C@@H](O)[C@H](O)[C@H]3O)[C@H](O)[C@H]2O)[C@@H](O)[C@@H]1O` [erlose] the “Action of the enzyme on the substrate” value (β-fructofuranosidase [1]) was “acts on”.

With `OC[C@H]1O[C@@H](O[C@H]2[C@H](O)[C@@H](O)[C@@H](O[C@]3(CO)O[C@H](CO)[C@@H](O)[C@@H]3O)O[C@@H]2CO)[C@H](O)[C@@H](O)[C@H]1O` [lactosucrose] the “Action of the enzyme on the substrate” value (β-fructofuranosidase [1]) was “acts on” and the “Toxicity (in words)” value (dd-strain mice) was “relatively low in toxicity”.

`OC[C@H]1O[C@H](OC[C@H]2O[C@H](OC[C@H]3O[C@H](O[C@]4(CO)O[C@H](CO)[C@@H](O)[C@@H]4O)[C@H](O)[C@@H](O)[C@@H]3O)[C@H](O)[C@@H](O)[C@H]2O)[C@H](O)[C@@H](O)[C@H]1O` [stachyose] was tested, and the “Action of the enzyme on the substrate” value (β-fructofuranosidase [1]) was “acts on”.

For `OC[C@H]1O[C@@](CO)(O[C@H]2O[C@H](CO)[C@@H](O)[C@H](O)[C@H]2O)[C@@H](O)[C@@H]1O` [sucrose], the “Action of the enzyme on the substrate” value (β-fructofuranosidase [1]) was “acts on”.

`OC[C@H]1O[C@@](CO)(O[C@H]2OC[C@@H](O)[C@H](O)[C@H]2O)[C@@H](O)[C@@H]1O` [xylofructoside] was tested, and the “Action of the enzyme on the substrate” value (β-fructofuranosidase [1]) was “acts on”.

With inulin the “Action of the enzyme on the substrate” value (β-fructofuranosidase [1]) was “does not act on”.

laevan was tested, and the “Action of the enzyme on the substrate” value (β-fructofuranosidase [1]) was “does not act on”.
